Reference: PubChem BioAssay (NCI)
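Compound exposure: 48 hours, 5 concentrations, 96-well plates. Abbreviation: GI50, concentration required for 50% inhibition of growth. TGI: concentration producing complete growth inhibition.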

Experiments:
Test in all cases: NCI-60 cell line screen, 48 h
786-0 renal = tested on: 786-0 renal
A498 renal = tested on: A498 renal
A549 NSCLC = tested on: A549 NSCLC
BT-549 breast = tested on: BT-549 breast
CAKI-1 renal = tested on: CAKI-1 renal
CCRF-CEM leukemia = tested on: CCRF-CEM leukemia
COLO 205 colon = tested on: COLO 205 colon
DU-145 prostate = tested on: DU-145 prostate
EKVX NSCLC = tested on: EKVX NSCLC
HCC-2998 colon = tested on: HCC-2998 colon
HCT-116 colon = tested on: HCT-116 colon
HCT-15 colon = tested on: HCT-15 colon
HL-60(TB) leukemia = tested on: HL-60(TB) leukemia
HOP-62 NSCLC = tested on: HOP-62 NSCLC
HOP-92 NSCLC = tested on: HOP-92 NSCLC
HS 578T breast = tested on: HS 578T breast
HT29 colon = tested on: HT29 colon
IGROV1 ovarian = tested on: IGROV1 ovarian
K-562 leukemia = tested on: K-562 leukemia
KM12 colon = tested on: KM12 colon
LOX IMVI melanoma = tested on: LOX IMVI melanoma
M14 melanoma = tested on: M14 melanoma
MALME-3M melanoma = tested on: MALME-3M melanoma
MCF7 breast = tested on: MCF7 breast
MDA-MB-231 breast = tested on: MDA-MB-231 breast
MDA-MB-435 = tested on: MDA-MB-435
MOLT-4 leukemia = tested on: MOLT-4 leukemia
NCI-H226 lung = tested on: NCI-H226 lung
NCI-H23 lung = tested on: NCI-H23 lung
NCI-H460 lung = tested on: NCI-H460 lung
NCI-H522 lung = tested on: NCI-H522 lung
NCI/ADR-RES ovarian = tested on: NCI/ADR-RES ovarian
OVCAR-4 ovarian = tested on: OVCAR-4 ovarian
OVCAR-5 ovarian = tested on: OVCAR-5 ovarian
OVCAR-8 ovarian = tested on: OVCAR-8 ovarian
PC-3 prostate = tested on: PC-3 prostate
RPMI-8226 leukemia = tested on: RPMI-8226 leukemia
SF-268 CNS = tested on: SF-268 CNS
SF-295 CNS = tested on: SF-295 CNS
SF-539 CNS = tested on: SF-539 CNS
SK-MEL-28 melanoma = tested on: SK-MEL-28 melanoma
SK-MEL-5 melanoma = tested on: SK-MEL-5 melanoma
SK-OV-3 ovarian = tested on: SK-OV-3 ovarian
SN12C renal = tested on: SN12C renal
SNB-19 CNS = tested on: SNB-19 CNS
SNB-75 CNS = tested on: SNB-75 CNS
SW-620 colon = tested on: SW-620 colon
T-47D breast = tested on: T-47D breast
TK-10 renal = tested on: TK-10 renal
U251 CNS = tested on: U251 CNS
UACC-257 melanoma = tested on: UACC-257 melanoma
UO-31 renal = tested on: UO-31 renal

With C#C[C@]1(O)CC[C@H]2[C@@H]3CC=C4c5sc(Nc6ccc(OC)nc6)nc5CC[C@]4(C)[C@H]3CC[C@@]21C the GI50 (786-0 renal) was 413 nM, the TGI (786-0 renal) was 1970 nM and the GI50 (A498 renal) was 769 nM. For the same molecule, the TGI (A498 renal) was 5880 nM, the GI50 (A549 NSCLC) was 2200 nM and the TGI (A549 NSCLC) was 18000 nM. For the same molecule, the GI50 (BT-549 breast) was 944 nM, the TGI (BT-549 breast) was 2890 nM and the GI50 (CAKI-1 renal) was 1280 nM. The TGI (CAKI-1 renal) was 3760 nM, the GI50 (CCRF-CEM leukemia) was 805 nM and the TGI (CCRF-CEM leukemia) was 6240 nM. The GI50 (COLO 205 colon) was 1780 nM, the TGI (COLO 205 colon) was 3370 nM and the GI50 (DU-145 prostate) was 2010 nM. For the same molecule, the TGI (DU-145 prostate) was 10000 nM, the GI50 (EKVX NSCLC) was 1600 nM and the TGI (EKVX NSCLC) was 21300 nM. For the same molecule, the GI50 (HCC-2998 colon) was 1700 nM, the TGI (HCC-2998 colon) was 3810 nM and the GI50 (HCT-116 colon) was 1130 nM. The TGI (HCT-116 colon) was 2490 nM, the GI50 (HCT-15 colon) was 1070 nM and the TGI (HCT-15 colon) was 8280 nM. The GI50 (HL-60(TB) leukemia) was 493 nM, the TGI (HL-60(TB) leukemia) was 3710 nM and the GI50 (HOP-62 NSCLC) was 1660 nM. For the same molecule, the TGI (HOP-62 NSCLC) was 8800 nM, the GI50 (HOP-92 NSCLC) was 1030 nM and the TGI (HOP-92 NSCLC) was 2950 nM. For the same molecule, the GI50 (HS 578T breast) was 231 nM, the TGI (HS 578T breast) was 1610 nM and the GI50 (HT29 colon) was 1310 nM. For the same molecule, the TGI (HT29 colon) was 3240 nM, the GI50 (IGROV1 ovarian) was 2040 nM and the TGI (IGROV1 ovarian) was 7400 nM. The GI50 (K-562 leukemia) was 907 nM, the TGI (K-562 leukemia) was 12800 nM and the GI50 (KM12 colon) was 2100 nM. The TGI (KM12 colon) was 12200 nM, the GI50 (LOX IMVI melanoma) was 1150 nM and the TGI (LOX IMVI melanoma) was 2790 nM. It also gave a GI50 (M14 melanoma) of 1470 nM, a TGI (M14 melanoma) of 3470 nM and a GI50 (MALME-3M melanoma) of 1540 nM. For the same molecule, the TGI (MALME-3M melanoma) was 3210 nM, the GI50 (MCF7 breast) was 789 nM and the TGI (MCF7 breast) was 2540 nM. It also gave a GI50 (MDA-MB-231 breast) of 1710 nM, a TGI (MDA-MB-231 breast) of 9340 nM and a GI50 (MDA-MB-435) of 1840 nM. The TGI (MDA-MB-435) was 4900 nM, the GI50 (MOLT-4 leukemia) was 390 nM and the TGI (MOLT-4 leukemia) was 2410 nM. For the same molecule, the GI50 (NCI-H226 lung) was 2020 nM, the TGI (NCI-H226 lung) was 13400 nM and the GI50 (NCI-H23 lung) was 1650 nM. For the same molecule, the TGI (NCI-H23 lung) was 4470 nM, the GI50 (NCI-H460 lung) was 1920 nM and the TGI (NCI-H460 lung) was 5890 nM. It also gave a GI50 (NCI-H522 lung) of 1430 nM, a TGI (NCI-H522 lung) of 3020 nM and a GI50 (NCI/ADR-RES ovarian) of 2360 nM. It also gave a TGI (NCI/ADR-RES ovarian) of over 100000 nM, a GI50 (OVCAR-4 ovarian) of 3510 nM and a TGI (OVCAR-4 ovarian) of over 100000 nM. It also gave a GI50 (OVCAR-5 ovarian) of 2490 nM, a TGI (OVCAR-5 ovarian) of 15100 nM and a GI50 (OVCAR-8 ovarian) of 1800 nM. For the same molecule, the TGI (OVCAR-8 ovarian) was 5460 nM, the GI50 (PC-3 prostate) was 739 nM and the TGI (PC-3 prostate) was 4920 nM. For the same molecule, the GI50 (RPMI-8226 leukemia) was 222 nM, the TGI (RPMI-8226 leukemia) was 1190 nM and the GI50 (SF-268 CNS) was 2010 nM. For the same molecule, the TGI (SF-268 CNS) was 17400 nM, the GI50 (SF-295 CNS) was 302 nM and the TGI (SF-295 CNS) was 1230 nM. It also gave a GI50 (SF-539 CNS) of 366 nM, a TGI (SF-539 CNS) of 2150 nM and a GI50 (SK-MEL-28 melanoma) of 1500 nM. For the same molecule, the TGI (SK-MEL-28 melanoma) was 3720 nM, the GI50 (SK-MEL-5 melanoma) was 1930 nM and the TGI (SK-MEL-5 melanoma) was 4540 nM. It also gave a GI50 (SK-OV-3 ovarian) of 1260 nM, a TGI (SK-OV-3 ovarian) of 6160 nM and a GI50 (SN12C renal) of 2220 nM. For the same molecule, the TGI (SN12C renal) was 7610 nM, the GI50 (SNB-19 CNS) was 1360 nM and the TGI (SNB-19 CNS) was 68800 nM. The GI50 (SNB-75 CNS) was 370 nM, the TGI (SNB-75 CNS) was 3900 nM and the GI50 (SW-620 colon) was 1490 nM. For the same molecule, the TGI (SW-620 colon) was 3400 nM, the GI50 (T-47D breast) was 1470 nM and the TGI (T-47D breast) was 3780 nM. For the same molecule, the GI50 (TK-10 renal) was 2280 nM, the TGI (TK-10 renal) was 4810 nM and the GI50 (U251 CNS) was 654 nM. It also gave a TGI (U251 CNS) of 2810 nM, a GI50 (UACC-257 melanoma) of 1550 nM and a TGI (UACC-257 melanoma) of 3180 nM. For the same molecule, the GI50 (UO-31 renal) was 830 nM and the TGI (UO-31 renal) was 2130 nM.
